# Data from patent US8242085B2, “Tetrahydrofuro [3,4-D] dioxolane compounds for use in the treatment of viral infections and cancer” (BioCryst Pharmaceuticals, Inc., priority 2007, dated 2012).
# Assay: in vivo test of prodrug hydrolysis to active compound
# Conditions: tested in vivo
structure (smiles),measurement,value
"C[C@@]12OC(c3ccc(Cl)cc3)O[C@@H]1[C@@H](CO)O[C@H]2c1coc2c(N)ncnc12 (stereo partly drawn) [Example 1, ((3aR,4R,6S,6aS)-6-(4-Aminofuro[3,2-d]pyrimidin-7-yl)-2-(4-chlorophenyl)-6a-methyltetrahydrofuro[3,4-d][1,3]dioxol-4-yl)methanol]",hydrolysis of prodrug in vivo,hydrolyzes in vivo to provide an active compound
